These results are taken from publication PMC11867108, “Design and application of a fluorescent probe for imaging of endogenous Bruton's tyrosine kinase with preserved enzymatic activity” (RSC Chemical Biology, 2025).

Assay [1] addresses T1, Bruton's tyrosine kinase (BTK) (Homo sapiens, UniProt Q06187).
T1 construct: full-length recombinant BTK
The assay can be described thus: in-gel fluorescence under denaturing conditions (covalent labelling); ADP-Glo IC50. The assay is classed as biochemical.

The target of assay [2] is T1, Bruton's tyrosine kinase (BTK). The assay can be described thus: LC-MS/MS of tryptic peptide […]-487 and in-gel fluorescence; ADP-Glo IC50; immunoprecipitation from Ramos cells. It counts as biochemical. On the technique in general: ADP-Glo turns the ADP formed in a reaction into a luminescent signal.

pIC50: −log10 of the molar value. Some results are limits rather than exact numbers.

T1 sequence (Q06187 2-659): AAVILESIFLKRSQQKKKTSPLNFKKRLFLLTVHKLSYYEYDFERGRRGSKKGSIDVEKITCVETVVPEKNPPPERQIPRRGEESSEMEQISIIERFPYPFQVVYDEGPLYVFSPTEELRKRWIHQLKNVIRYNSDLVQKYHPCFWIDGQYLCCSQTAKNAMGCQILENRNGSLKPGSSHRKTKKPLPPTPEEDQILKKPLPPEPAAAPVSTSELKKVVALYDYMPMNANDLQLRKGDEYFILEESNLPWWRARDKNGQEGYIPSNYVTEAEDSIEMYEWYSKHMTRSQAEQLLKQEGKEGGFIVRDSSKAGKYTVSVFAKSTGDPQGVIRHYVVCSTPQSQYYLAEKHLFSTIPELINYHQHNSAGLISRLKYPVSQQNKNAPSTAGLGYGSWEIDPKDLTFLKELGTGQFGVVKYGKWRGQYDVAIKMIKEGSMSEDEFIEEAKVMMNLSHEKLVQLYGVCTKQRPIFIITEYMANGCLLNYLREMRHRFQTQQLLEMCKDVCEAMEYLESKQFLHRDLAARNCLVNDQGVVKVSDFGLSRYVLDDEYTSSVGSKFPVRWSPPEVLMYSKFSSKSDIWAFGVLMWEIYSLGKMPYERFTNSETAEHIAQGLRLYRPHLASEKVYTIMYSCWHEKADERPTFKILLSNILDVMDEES

What is called pIC50 is the negative decadic logarithm of the IC50, by convention in mol/L. The compound `C=C(CN1CCC(CNc2ncnc(N)c2-c2ccc(Oc3ccccc3)cc2)CC1)C(=O)NCCNC(=O)CCC1=[N+]2C(=Cc3c(C)cc(C)n3[B-]2(F)F)C=C1` [Evo-1] gave a negative-log IC50 (pIC50) in assay [1] of 5.12.

For the compound `C=C(CN1CCC(CNc2ncnc(N)c2-c2ccc(Oc3ccccc3)cc2)CC1)C(=O)N1CCC(NC(=O)CCC2=[N+]3C(=Cc4c(C)cc(C)n4[B-]3(F)F)C=C2)CC1` [Evo-2], in assay [2], the pIC50 was below 5.00.
